Consider 15 compounds from US9999619B2, “Piperidin-4-yl azetidine derivatives as JAK1 inhibitors” (Incyte Corporation, priority 2010, dated 2018).

Where a name gives a salt, the structure may show the parent alone. Some results are limits rather than exact numbers.

Assay type in all cases: biochemical
Test [1] addresses human JAK1 (a.a. 837-1142) (Homo sapiens, UniProt P23458). As to the kind of experiment: In vitro JAK kinase assay (HTRF, phosphorylation of a biotinylated peptide), JAK1. The note with it: measured at 1 mM ATP. The method in brief:
(§1)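 N-terminally His-tagged catalytic domains, baculovirus-expressed in insect cells and purified, were used as enzyme. Reactions ran 1 hr at room temperature and were stopped with a mix of 45 mM EDTA, 300 nM SA-APC and 6 nM Eu-Py20. The HTRF signal was read after 40 min of antibody binding.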
Background: TR-FRET usually uses a lanthanide donor and a delayed reading to cut background.

In test [2] the target is human JAK1 (a.a. 837-1142). The description is as above. The note with it: ratio of JAK2 IC50 to JAK1 IC50, measured at 1 mM ATP. The procedure, abridged: as §1
For a further test, the target named is Jak2 (a.a. 828-1132) (Homo sapiens (Human), UniProt O60674). As to the kind of experiment: In vitro JAK kinase assay (HTRF, phosphorylation of a biotinylated peptide), JAK2. The note with it: measured at 1 mM ATP. The procedure, abridged: as §1
Chain of Jak2 (a.a. 828-1132) (O60674 828-1132): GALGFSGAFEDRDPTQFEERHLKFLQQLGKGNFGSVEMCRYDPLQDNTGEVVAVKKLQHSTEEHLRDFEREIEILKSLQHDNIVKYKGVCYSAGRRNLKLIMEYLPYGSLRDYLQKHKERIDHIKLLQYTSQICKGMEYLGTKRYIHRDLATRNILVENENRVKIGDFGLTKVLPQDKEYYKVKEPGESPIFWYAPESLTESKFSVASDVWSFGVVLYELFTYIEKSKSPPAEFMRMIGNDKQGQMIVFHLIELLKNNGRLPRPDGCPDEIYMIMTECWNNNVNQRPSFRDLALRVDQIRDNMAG

As for `N#CCC1(n2cc(-c3ncnc4[nH]ccc34)cn2)CN(C2CCN(C(=O)Nc3ccccc3C(F)(F)F)CC2)C1` [Example 157, 4-{3-(cyanomethyl)-3-[4-(7H-pyrrolo[2,3-d]pyrimidin-4-yl)-1H-pyrazol-1-yl]azetidin-1-yl}-N-[2-(trifluoromethyl)phenyl]piperidine-1-carboxamide], the IC50 in test [1] was at most 5 nM; against Jak2 (a.a. 828-1132), 50 to 100 nM. Further, the “IC50 Ratio JAK2/JAK1” value in test [2] was 14.8.
As for `N#CCC1(n2cc(-c3ncnc4[nH]ccc34)cn2)CN(C2CCN(C(=O)C3CCC(C(F)(F)F)CC3)CC2)C1` (stereo not drawn) [Example 98, {3-[4-(7H-pyrrolo[2,3-d]pyrimidin-4-yl)-1H-pyrazol-1-yl]-1-(1-{[4-(trifluoromethyl)cyclohexyl]carbonyl}piperidin-4-yl)azetidin-3-yl]acetonitrile], the results for the half-maximal inhibitory concentration (IC50) (in test [1]; against Jak2 (a.a. 828-1132)) were 5 to 20 nM and 50 to 100 nM, respectively. Also, the “IC50 Ratio JAK2/JAK1” value in test [2] was 3.7.
As for `N#CCC1(n2cc(-c3ncnc4[nH]ccc34)cn2)CN(C2CCN(C(=O)c3ccc(F)c(Cl)c3)CC2)C1` [Example 34, {1-[1-(3-chloro-4-fluorobenzoyl)piperidin-4-yl]-3-[4-(7H-pyrrolo[2,3-d]pyrimidin-4-yl)-1H-pyrazol-1-yl]azetidin-3-yl}acetonitrile], the half-maximal inhibitory concentration (IC50) lay in the range of 5 to 20 nM in test [1] and 10 to 50 nM on Jak2 (a.a. 828-1132). Besides, in test [2], the “IC50 Ratio JAK2/JAK1” value is 6.0.
For `Cc1ccc(NC(=O)N2CCC(N3CC(CC#N)(n4cc(-c5ncnc6[nH]ccc56)cn4)C3)CC2)c(F)n1` [Example 200, 4-{3-(cyanomethyl)-3-[4-(7H-pyrrolo[2,3-d]pyrimidin-4-yl)-1H-pyrazol-1-yl]azetidin-1-yl}-N-(2-fluoro-6-methylpyridin-3-yl)piperidine-1-carboxamide], the values for the half-inhibitory concentration (IC50) (in test [1]; against Jak2 (a.a. 828-1132)) were at most 5 nM and 10 to 50 nM, respectively. The “IC50 Ratio JAK2/JAK1” value in test [2] worked out at 6.7.
As for `N#CCC1(n2cc(-c3ncnc4[nH]ccc34)cn2)CN(C2CCN(C(=O)c3cccc(C(F)(F)F)c3F)CC2)C1` [Example 7, {1-{1-[2-fluoro-3-(trifluoromethyl)benzoyl]piperidin-4-yl}-3-[4-(7H-pyrrolo[2,3-d]pyrimidin-4-yl)-1H-pyrazol-1-yl]azetidin-3-yl}acetonitrile], the 50% inhibitory concentration (IC50) in test [1] is at most 5 nM; against Jak2 (a.a. 828-1132) it was at most 10 nM. In test [2], the “IC50 Ratio JAK2/JAK1” value is on record as 10.8.
In the same order, the values of `N#CCC1(n2cc(-c3ncnc4[nH]ccc34)cn2)CN(C2CCN(C(=O)c3cccc(C(F)(F)F)c3)CC2)C1` [Example 22, (3-[4-(7H-pyrrolo[2,3-d]pyrimidin-4-yl)-1H-pyrazol-1-yl]-1-{1-[3-(trifluoromethyl)benzoyl]piperidin-4-yl}azetidin-3-yl)acetonitrile] are 5 to 20 nM, 10 to 50 nM and 3.2.
For `N#CCC1(n2cc(-c3ncnc4[nH]ccc34)cn2)CN(C2CCN(Cc3c(F)ccc(Cl)c3F)CC2)C1` [Example 228, {1-[1-(3-chloro-2,6-difluorobenzyl)piperidin-4-yl]-3-[4-(7H-pyrrolo[2,3-d]pyrimidin-4-yl)-1H-pyrazol-1-yl]azetidin-3-yl}acetonitrile], the half-maximal inhibitory concentration (IC50) in test [1] is at most 5 nM; at Jak2 (a.a. 828-1132), at most 10 nM. Besides, the “IC50 Ratio JAK2/JAK1” value in test [2] was found to be 3.9.
In the same order, the values of `N#CCC1(n2cc(-c3c(F)cnc4[nH]ccc34)cn2)CN(C2CCN(C(=O)c3ccnc(C(F)(F)F)n3)CC2)C1` [Example 353, [3-[4-(5-Fluoro-1H-pyrrolo[2,3-b]pyridin-4-yl)-1H-pyrazol-1-yl]-1-(1-{[2-(trifluoromethyl)pyrimidin-4-yl]carbonyl}piperidin-4-yl)azetidin-3-yl]acetonitrile] are 5 to 20 nM, 10 to 50 nM and 5.0.
On the same counts, the results for `N#CCC1(n2cc(-c3ncnc4[nH]ccc34)cn2)CN(C2CCN(C(=O)c3cc(CN4CCC(F)(F)C4)nc(C(F)(F)F)n3)CC2)C1` [Example 379, {1-(1-{[6-[(3,3-difluoropyrrolidin-1-yl)methyl]-2-(trifluoromethyl)pyrimidin-4-yl]carbonyl}piperidin-4-yl)-3-[4-(7H-pyrrolo[2,3-d]pyrimidin-4-yl)-1H-pyrazol-1-yl]azetidin-3-yl}acetonitrile (trifluoroacetate salt: 4 TFA)] are at most 5 nM, 50 to 100 nM and 36.9.
In the same order, the values of `N#CCC1(n2cc(-c3ncnc4[nH]ccc34)cn2)CN(C2CCN(Cc3c(F)cccc3Cl)CC2)C1` [Example 227, {1-[1-(2-chloro-6-fluorobenzyl)piperidin-4-yl]-3-[4-(7H-pyrrolo[2,3-d]pyrimidin-4-yl)-1H-pyrazol-1-yl]azetidin-3-yl}acetonitrile] are at most 5 nM, at most 10 nM and 7.9.
Take `N#CCC1(n2ccc(-c3ncnc4[nH]ccc34)c2)CN(C2CCN(C(=O)Nc3ccccc3C#N)CC2)C1` [Example 287, 4-{3-(cyanomethyl)-3-[3-(7H-pyrrolo[2,3-d]pyrimidin-4-yl)-1H-pyrrol-1-yl]azetidin-1-yl}-N-(2-cyanophenyl)piperidine-1-carboxamide]: the values for the IC50 (in test [1]; against Jak2 (a.a. 828-1132)) were 5 to 20 nM and 50 to 100 nM, respectively. Further, the “IC50 Ratio JAK2/JAK1” value in test [2] stood at 6.7.
In the same order, the values of `N#CCC1(n2cc(-c3ncnc4[nH]ccc34)cn2)CN(C2CCN(C(=O)Nc3cccc(C(F)(F)F)c3)CC2)C1` [Example 166, 4-{3-(cyanomethyl)-3-[4-(7H-pyrrolo[2,3-d]pyrimidin-4-yl)-1H-pyrazol-1-yl]azetidin-1-yl}-N-[3-(trifluoromethyl)phenyl]piperidine-1-carboxamide] are at most 5 nM, at most 10 nM and 5.5.
On the same counts, the results for `N#CCC1(n2cc(-c3c(F)cnc4[nH]ccc34)cn2)CN(C2CCN(C(=O)Nc3cnccc3C(F)(F)F)CC2)C1` [Example 330, 4-{3-(cyanomethyl)-3-[4-(5-fluoro-1H-pyrrolo[2,3-b]pyridin-4-yl)-1H-pyrazol-1-yl]azetidin-1-yl}-N-[4-(trifluoromethyl)pyridin-3-yl]piperidine-1-carboxamide] are at most 5 nM, 10 to 50 nM and 6.7.
Take `COc1cccc(C(=O)N2CCC(N3CC(CC#N)(n4cc(-c5ncnc6[nH]ccc56)cn4)C3)CC2)c1` [Example 31, {1-[1-(3-methoxybenzoyl)piperidin-4-yl]-3-[4-(7H-pyrrolo[2,3-d]pyrimidin-4-yl)-1H-pyrazol-1-yl]azetidin-3-yl}acetonitrile]: the 50% inhibitory concentration (IC50) in test [1] is at most 5 nM; against Jak2 (a.a. 828-1132), at most 10 nM. Moreover, in test [2], the “IC50 Ratio JAK2/JAK1” value worked out at 1.9.
In the same order, the values of `N#CCC1(n2cc(-c3ccnc4[nH]ccc34)cn2)CN(C2CCN(C(=O)c3ccc(O)cc3F)CC2)C1` [Example 297, {1-[1-(2-fluoro-4-hydroxybenzoyl)piperidin-4-yl]-3-[4-(1H-pyrrolo[2,3-b]pyridin-4-yl)-1H-pyrazol-1-yl]azetidin-3-yl}acetonitrile] are at most 5 nM, at most 10 nM and 10.0.

Usually IC50 stands for the concentration that inhibits the measured activity by half. A low value points to greater potency.
